Measured values from patent US20220008376A1, “INHIBITORS OF TYPE 3 SECRETION SYSTEM AND ANTIBIOTIC THERAPY” (priority 2018, published 2022).
Where two headings read alike, the source gives them in different places.

Columns and labels:
[1] = biological target: T1, PscF^69-85-PscE-PscG complex (Pseudomonas aeruginosa, UniProt P95435); experiment: CD spectroscopy and thermal denaturation of the heterotrimer; conditions: for effect on helicity of the heterotrimeric complex: CD, 20 μM heterotrimer, 25° C., 10 mM phosphate buffer, pH 7.4
T1 construct: made in house; host or cells: total chemical synthesis (solid phase peptide synthesis and native chemical ligation), no expression host
T1 sequence (Q9I317 whole entry): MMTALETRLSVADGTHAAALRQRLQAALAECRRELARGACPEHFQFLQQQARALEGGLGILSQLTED
T1 sequence (P95435 2-115): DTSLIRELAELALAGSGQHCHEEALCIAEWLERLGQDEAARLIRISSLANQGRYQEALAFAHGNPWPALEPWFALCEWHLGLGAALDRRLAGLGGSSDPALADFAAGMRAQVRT
Description: Circular dichroism (CD) spectroscopy and thermal denaturation. […] Protein thermal denaturation was carried out in PBS using a JASCO circular dichroism spectrometer equipped with temperature controller. […] Under constant stirring, measurement was taken at one-degree interval between 25° C. and 90° C., at a heating rate of 1° C. per minute. After each 1-minute heating, the solution in the cuvette was waited for 20 s before signals were detected over a 16 s period. Heating and data acquisition were fully automated with the control software provided by JASCO. Data processing was performed as previously described.

[2] = tested on: cytotoxicity of PAO1 to murine macrophages (J774A.1); experiment: Cytoplasmic lactate dehydrogenase (LDH) release assay, PAO1-infected macrophages; assay type: cell-based, mouse; conditions: for inhibition of Pseudomonas aeruginosa-induced cell lysis (LDH release), words: different concentrations, MOI 8, 5 hours; for EC50: Mus musculus
From the text: Cytoplasmic lactate dehydrogenase (LDH) release assay. […] LDH released into supernatant was detected by LDH detection kit (Beyotime, C0017) as instructed by the manufacturer.

PAO1 [3] = experiment: Survival study, murine model of acute pneumonia; assay type: in vivo, C57BL/6J mice; conditions: for mice died of infection within 48 h, first treatment 8 h after challenge: mock-treated 85%
Description: (§1) Animal studies. 6-week-old female C57BL/6J mice used in this study were acquired from the Experimental Animal Center of Xian Jiaotong University. All the animals were maintained in animal care facilities in the School of Life Science and Technology, and provided with food and water ad libitum. The animal studies were approved by the Committee on Animal Research and Ethics, Xi'an Jiaotong University.
For survival study, tanshinone inhibitors (100 μM, 1% DMSO, in 10 μL PBS) were administrated to the infected animals intranasally at the time of infection, or 8 h after infection, and every 12 hours till the death of the animal or the end of the experiment. PBS containing 1% DMSO was used as mock treatment.

[4] = tested on: secretion of ExoS by PAO1; experiment: Inhibition of T3SS-mediated effector secretion (ExoS Western blot); assay type: cell-based, Pseudomonas aeruginosa; conditions: PAO1 under low-calcium conditions; for inhibition of ExoS secretion: 100 μM
Description: Inhibition of T3SS-mediated effector secretion. For T3SS induction, PAO1 overnight cultures were diluted to an OD at 600 nm of 0.3 in LB containing 5 mM EGTA and 20 mM MgCl2, in the presence of tanshinone inhibitors ([…]), followed by an incubation with mild agitation of additional 3-4 hours until the cultures reached an OD value of 1.5. NC group were cultured in LB and 2% DMSO, PC group were cultured in LB containing 5 mM EGTA, 20 mM MgCl2 and 2% DMSO. Culture supernatant was collected by centrifugation at 4000 g for 15 min at 4° C. and secreted proteins were concentrated by adding ice-cold trichloroacetic acid to a final concentration of 10% (V/V). Following a 2 hours' incubation on ice, the pellets were washed twice with cold acetone and suspended in an SDS-PAGE sample buffer (with 2-mercaptoethanol) according to the BCA protein assay protocol. Secreted and total proteins (supernatant and pelleted bacteria) were analyzed by immunoblotting with an anti-ExoS antibody (Agrisera, AS05056, at 1:4000 dilution) and corresponding HRP-conjugated secondary antibody. The blots were semi-quantified using ImageJ 1.51 k (from http://imagej.nih.gov/ij). The results were expressed as the mean±SD percentage of secreted ExoS out of total ExoS of three independent experiments.

PscE-PscG heterodimer [5] = biological target: T2, PscE-PscG heterodimer (Pseudomonas aeruginosa, UniProt P95435); assay type: binding; design: made in house; host or cells: total chemical synthesis (solid phase peptide synthesis and native chemical ligation), no expression host; conditions: FP competition with FAM-PscF69-85 for PscE-PscG
Description: Fluorescence polarization (FP) and FP-based competitive binding assays. All fluorescence polarization assays were done using black, low protein binding 96-well plates (Thermo Fisher Scientific) in a total volume of 100 μl per well of 10 mM Tris buffer containing 150 mM NaCl and 1 mM EDTA, pH 7.0, unless indicated otherwise. After a gentle mixing and incubation for 3 h, FP readings were taken at 470 nm (excitation) and 530 nm (emission) wavelengths on a Tecan Infinite M2000 fluorescence plate reader. Nonlinear regression analyses were performed to give rise to Kd and IC50 values as previously described.
For direct binding of PscF to PscG or PscE-PscG, equal volumes of FAM-PscF^69-85 (400 nM) and serially diluted PscG or PscE-PscG (0-64 μM) were mixed. For initial screening, 95 μl of FAM-PscF^69-85-PscE-PscG (100 nM) in the assay buffer was mixed with 5 μl of small molecule inhibitor in DMSO to a final molar concentration of 1, 10, 100, or 1000 μM. 5% DMSO and 6 M GuHCl in the final assay buffer were used as negative and positive controls, respectively. For secondary screening or competitive binding assays, 95 μl of FAM-PscF^69-85-PscE-PscG (100 nM) in the assay buffer was mixed with 5 μl of serially diluted PscF^69-85 or various tanshinone analogs (0-200 μM).
Target sequence in this assay (P95435 1-114): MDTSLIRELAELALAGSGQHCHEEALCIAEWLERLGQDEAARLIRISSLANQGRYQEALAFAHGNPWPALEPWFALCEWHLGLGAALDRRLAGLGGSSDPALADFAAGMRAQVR
Target sequence in this assay (Q9I317 whole entry, further chain): as the sequence (Q9I317 whole entry) above

PAO1 [6] = experiment: Bacterial burden in bronchoalveolar lavage and lung histopathology, PAO1-infected mice; assay type: in vivo, C57BL/6J mice
From the text: as §1
C57BL/6J mice were lightly anesthetized with inhaled sevoflurane and infected by intranasal instillation of PAO1 (1×10^7 CFU in 20 μL PBS) after lightly anesthetized with inhaled sevoflurane. Tanshinone inhibitors were administrated to the animals along with bacterial inoculation (100 μM, 1% DMSO). PBS containing 1% DMSO was used as mock treatment. 18 hours after infection, animals were sacrificed and bronchoalveolar lavages were collected and plated to obtain the bacterial counts in the lavages. The lungs of sacrificed mice were then isolated and fixed in 10% buffered formalin, paraffin embedded and hematoxylin-eosin-stained for histopathological examination. Pathological scores of the tissues were assigned according to the degree of inflammation.

[7] = tested on: intracellular PAO1 in J774A.1 cells; conditions: different concentrations, gentamicin at 2 h post infection
Description: Quantification of bacterial internalization. 5×10^4 J774a cells were seeded into each well of a 24-well plate and grown for 24 h before infection. One hour before the infection, cell culture medium was changed into serum-free medium and PAO-1 from mid-exponential phase was added to the cells at a multiplicity of infection (MOI) of 8. In the presence of different concentration of tanshinone inhibitors (0-100 μM compound, 2% DMSO), bacteria/cells mixtures were incubated for 2 hours and washed, then treated with gentamicin-containing (50 μg/ml) medium for another 2 hours before being lysed for plating. Internalized bacteria were defined as the total number of intracellular bacteria in cells (extracellular bacteria were killed by gentamicin, a cell-impermeable antibiotic). Results were normalized against the intracellular bacteria number by PAO-1-infected cells with mock treatment (2% DMSO). Average results of three independent experiments are shown as mean±SD.

PscE-PscG heterodimer [8] = biological target: T2, PscE-PscG heterodimer; experiment: 15N-1H HSQC NMR of 15N-PscG-PscE with dHTSN1; assay type: binding; design: inferred from the Ni-NTA purification; made in house; host or cells: PscG: E. coli (15N MOPS medium); PscE: chemical synthesis; conditions: molar ratio 1:1:1
Description: PscG was uniformly labeled with ^15N MOPS medium containing 1 g/L ^15NH4Cl as the sole source and BME vitamins (Sigma, USA). Cells were harvested by centrifugation at 6000 g for 30 min, resuspended in a lysis buffer containing 6 M urea, and subjected to a 1-min sonication, followed by two-cycle homogenization at 4° C. The lysates were centrifuged at 20,000 rpm for 30 min, and the supernatant was loaded onto a 10 ml Ni-NTA agarose column (Qiagen, USA). The elute was concentrated to 10-12 ml under denaturation conditions, followed by purification on a Sep-Pak C18 column. Peak fractions containing ^15N-PscG were lyophilized. […] The mixtures were dialyzed against the same buffer overnight and then concentrated to ˜300 μl.
All NMR samples were prepared in an NMR buffer containing 20 mM sodium phosphate (pH 7.4), 100 mM NaCl, 0.1% NaN3, 10% D2O and 2 mM DTT. The final protein concentrations were approximately 26 μM and 47.8 μM for ^15N-PscG-PscE and ^15N-PscG-PscE-dHTSN1 complexes, respectively. All NMR spectra were collected at 25° C. on a Bruker Avance 700 MHz spectrometer equipped with a triple-resonance pulse-field gradient probe. ^15N-^1H HSQC NMR spectra were recorded in the echo-antiecho mode for quadrature detection. All datasets were acquired with 2048 complex points in t2 and 256 complex points in t1.
Target sequence in this assay (Q9I317 whole entry): as above
Target sequence in this assay (P95435 whole entry): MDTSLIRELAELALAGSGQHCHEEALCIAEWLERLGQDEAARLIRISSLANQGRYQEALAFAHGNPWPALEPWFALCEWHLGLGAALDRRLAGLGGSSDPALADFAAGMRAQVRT

[9] = first intranasal dose 8 h after PAO1
[10] = J774.A1, read-out: EC50, LDH release normalized against PAO1 ΔpscC
[11] = J774.A1, normalized against mock-treated PAO1-infected cells, read-out: EC50, inhibition of PAO1 cytotoxicity to macrophages (LDH release)

SMILES	inhibition of Pseudomonas aeruginosa-induced cell lysis (LDH release), words [2]	mice died of infection within 48 h, first treatment 8 h after challenge (PAO1 [3]; [9]) [%]	inhibition of ExoS secretion [4]	activity in FP competition assay (PscE-PscG heterodimer [5])	EC50 [2, 10] [µM]	EC50 [2, 11] [µM]	further results
Cc1coc2c1C(=O)C(=O)c1c-2ccc2c(C)cccc12 [TSN1, tanshinone 1]	inhibited Pseudomonas aeruginosa-induced cell lysis in a dose dependent manner	40					effect on helicity of the heterotrimeric complex [1]: reduced; effect on helicity of the heterotrimeric complex ([1]; listed as tanshinone 1): progressively decreases; effect on thermal stability of the heterotrimeric complex ([1]; added to preformed heterotrimer PscE-PscG-PscF^69-85): reduced; Tm of PscF^69-85-PscE-PscG complex in presence of compound ([1]; complex 20 μM in PBS, 300 μM tanshinone 1, CD at 222 nm, 54.8 in absence): 52.3 °C; protection of infected mice, treatment from time of infection (PAO1 [3]; 100 μM intranasal at time of infection and every 12 h): significantly protective
C[C@H]1COC2=C1C(=O)C(=O)c1c2ccc2c1CCCC2(C)C [crpTSN, cryptotanshinone, reference compound]	inactive		no inhibitory activity	inactive			
Cc1cccc2c3c(ccc12)C(=O)C1=C(OC[C@H]1C)C3=O [dHTSN]	inhibited Pseudomonas aeruginosa-induced cell lysis in a dose dependent manner	20	more active than TSN1		~3	12.5	
Cc1coc2c1C(=O)C(=O)c1c-2ccc2c1CCCC2(C)C [tanshinone 2A]				inactive			
CC(Oc1ccc(Cl)cc1Cl)C(=O)NCc1ccc2c(c1)OCO2 (stereo not shown) [MBX-1641, reference compound]				no effect			inhibition of ExoS secretion (MBX-1641) ([4]; 6.25 μM): inhibited; bacterial burden in bronchoalveolar lavage (PAO1 [6]; single dose 100 μM at time of infection, sampled 18 h post infection): reduced bacterial burden; inhibition of intracellular bacterial survival / proliferation of PAO1 in macrophages [7]: inhibited
Cc1cccc2c3c(ccc12)C1=C(C(=O)C3=O)[C@@H](C)CO1 [dHTSN1, dihydrotanshinone 1]	inhibited Pseudomonas aeruginosa-induced cell lysis in a dose dependent manner	5	more active than TSN1		~3	25	infected mice survived beyond 96 h, first treatment 8 h after challenge (PAO1 [3]; [9]): 80%; lung inflammation, H&E staining (PAO1 [6]; 18 h post infection): significantly reduced inflammation; interaction with 15N-PscG-PscE complex by NMR (PscE-PscG heterodimer [8]): relatively strong interactions
